In ChEMBL document CHEMBL4265889, “Design and synthesis of tetrahydropyridopyrimidine based Toll-Like Receptor (TLR) 7/8 dual agonists” (Bioorg Med Chem Lett, 2018):

Columns and labels:
[1] = target: T1, Toll-like receptor 8 (Homo sapiens) (UniProt Q9NR97); assay: Agonist activity at human TLR8 expressed in HEK293 cells after 6 hrs by NFkappaB-luciferase reporter gene assay; type: cell-based
T1 sequence (whole entry): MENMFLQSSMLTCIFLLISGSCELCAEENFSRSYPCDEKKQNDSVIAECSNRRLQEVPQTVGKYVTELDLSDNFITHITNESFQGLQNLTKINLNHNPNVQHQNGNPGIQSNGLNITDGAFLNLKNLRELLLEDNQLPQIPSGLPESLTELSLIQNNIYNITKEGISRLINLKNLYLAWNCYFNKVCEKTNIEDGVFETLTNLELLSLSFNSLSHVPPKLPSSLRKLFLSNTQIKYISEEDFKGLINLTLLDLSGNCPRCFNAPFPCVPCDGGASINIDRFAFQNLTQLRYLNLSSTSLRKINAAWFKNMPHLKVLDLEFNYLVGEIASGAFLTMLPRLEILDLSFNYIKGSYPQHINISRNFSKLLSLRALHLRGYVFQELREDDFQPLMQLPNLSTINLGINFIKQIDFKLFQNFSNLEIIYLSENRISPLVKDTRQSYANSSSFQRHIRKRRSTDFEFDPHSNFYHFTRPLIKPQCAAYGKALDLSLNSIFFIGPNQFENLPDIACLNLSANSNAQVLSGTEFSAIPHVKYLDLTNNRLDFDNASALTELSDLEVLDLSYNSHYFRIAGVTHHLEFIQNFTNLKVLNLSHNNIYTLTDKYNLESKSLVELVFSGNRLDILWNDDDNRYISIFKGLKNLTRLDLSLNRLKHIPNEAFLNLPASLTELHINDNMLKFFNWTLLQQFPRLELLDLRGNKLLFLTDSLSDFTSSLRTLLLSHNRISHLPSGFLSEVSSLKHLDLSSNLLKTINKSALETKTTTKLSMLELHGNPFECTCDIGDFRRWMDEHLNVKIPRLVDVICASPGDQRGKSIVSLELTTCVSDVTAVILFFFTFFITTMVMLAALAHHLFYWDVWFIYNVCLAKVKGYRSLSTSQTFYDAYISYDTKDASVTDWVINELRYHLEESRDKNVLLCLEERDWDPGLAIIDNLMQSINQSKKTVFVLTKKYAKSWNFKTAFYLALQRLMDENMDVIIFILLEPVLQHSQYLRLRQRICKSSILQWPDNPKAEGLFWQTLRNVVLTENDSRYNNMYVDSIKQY

[2] = target: T2, Toll-like receptor 7 (Homo sapiens) (UniProt Q9NYK1); assay: Agonist activity at human TLR7 expressed in HEK293 cells after 6 hrs by NFkappaB-luciferase reporter gene assay; type: cell-based
T2 sequence (whole entry): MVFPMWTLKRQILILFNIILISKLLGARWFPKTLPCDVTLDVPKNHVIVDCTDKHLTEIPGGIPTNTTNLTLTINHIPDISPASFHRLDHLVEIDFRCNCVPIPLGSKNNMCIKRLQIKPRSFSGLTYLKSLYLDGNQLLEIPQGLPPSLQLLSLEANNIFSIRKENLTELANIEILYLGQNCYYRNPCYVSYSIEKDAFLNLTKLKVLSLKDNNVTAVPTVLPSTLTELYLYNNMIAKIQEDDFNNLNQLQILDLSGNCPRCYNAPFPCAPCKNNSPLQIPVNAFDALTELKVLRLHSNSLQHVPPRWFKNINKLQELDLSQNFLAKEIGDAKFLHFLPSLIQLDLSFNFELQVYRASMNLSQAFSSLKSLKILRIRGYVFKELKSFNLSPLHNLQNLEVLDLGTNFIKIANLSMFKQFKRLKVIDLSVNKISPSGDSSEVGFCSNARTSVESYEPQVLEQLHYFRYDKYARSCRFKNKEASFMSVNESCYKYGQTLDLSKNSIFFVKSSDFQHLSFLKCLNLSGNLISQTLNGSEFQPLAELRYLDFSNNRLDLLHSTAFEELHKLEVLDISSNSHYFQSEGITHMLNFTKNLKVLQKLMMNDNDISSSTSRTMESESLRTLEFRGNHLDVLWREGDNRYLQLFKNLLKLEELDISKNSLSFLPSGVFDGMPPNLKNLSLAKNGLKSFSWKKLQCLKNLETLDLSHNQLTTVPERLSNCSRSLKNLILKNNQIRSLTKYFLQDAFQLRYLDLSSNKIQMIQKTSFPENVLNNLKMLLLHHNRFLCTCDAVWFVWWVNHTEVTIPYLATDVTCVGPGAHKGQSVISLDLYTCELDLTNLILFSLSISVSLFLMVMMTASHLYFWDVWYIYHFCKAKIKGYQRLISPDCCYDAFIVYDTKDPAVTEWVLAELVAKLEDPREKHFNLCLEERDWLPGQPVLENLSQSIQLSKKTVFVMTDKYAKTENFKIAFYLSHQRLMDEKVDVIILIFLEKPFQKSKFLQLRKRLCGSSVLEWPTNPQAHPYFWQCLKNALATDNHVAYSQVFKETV

[3] = Cytotoxicity against HEK293 cells transfected with the CMV-TLR7 construct assessed as reduction in cell viability after 6 hrs by ATPlite assay; type: cell-based; settings: human
[4] = target: T2, Toll-like receptor 7 (Homo sapiens); assay: Agonist activity at TLR7 in human PBMC assessed as suppression of HCV replicon replication in human HuH7 luc/neo cells harboring RNA encoding bicistronic expression construct comprising wild type HCV type 1b NS3-NS5B regions exposed to conditioned media from compound treated PBMCs after 24 hrs by luciferase reporter gene assay; type: cell-based
[5] = Drug metabolism in mouse liver microsomes at 1 uM after 15 mins; type: ADME, microsome; settings: read-out: Drug metabolism

Row | SMILES | MEC [1] [µM] | MEC [2] [µM] | CC50 at 6 h [3] [µM] | MEC [4] [µM] | metabolised at 0.25 h, 1 µM [5] [%]
1 | CCCCNc1nc(N)nc2c1CCN(C(C)=O)C2 | 0.4 | 5.8 | > 24 | – | –
2 | CCCCNc1nc(N)nc2c1CN(Cc1cccc(OC)c1Cl)CC2 | 0.04 | 1 | > 24 | 0.05 | –
3 | CCCCNc1nc(N)nc2c1CN(C(=O)c1ccccn1)CC2 | 2.9 | 9.5 | > 24 | 2.21 | –
4 | CCCCNc1nc(N)nc2c1CN(Cc1cccnc1)CC2 | 0.13 | 3 | > 24 | 0.15 | –
5 | CCCCNc1nc(N)nc2c1CN(Cc1cccc(Cl)c1Cl)CC2 | 0.18 | 1.5 | > 24 | 0.25 | –
6 | CCCCNc1nc(N)nc2c1CN(S(C)(=O)=O)CC2 | 9.9 | > 25 | > 24 | – | –
7 | CCCCNc1nc(N)nc2c1CN(C(=O)c1cscn1)CC2 | 0.5 | 1.2 | > 24 | 0.17 | –
8 | CCCCNc1nc(N)nc2c1CCN(Cc1ccccc1)C2 | 0.4 | 11 | > 24 | – | –
9 | CCCCNc1nc(N)nc2c1CN(C(=O)c1ccncc1)CC2 | > 25 | > 25 | > 24 | 3.56 | –
10 | CCCCNc1nc(N)nc2c1CCN(S(C)(=O)=O)C2 | 0.8 | 20 | > 24 | – | –
11 | CCCCNc1nc(N)nc2c1CN(Cc1ccncc1)CC2 | 0.29 | 5.2 | > 24 | 0.5 | –
12 | CCCCNc1nc(N)nc2c1CN(Cc1ccc(C(F)(F)F)cc1)CC2 | 0.23 | 2.8 | > 24 | 0.54 | –
13 | CCCCNc1nc(N)nc2c1CN(Cc1ccc(OC)cc1)CC2 | 0.08 | 2.1 | > 24 | 0.17 | –
14 | CCCCNc1nc(N)nc2c1CN(C(=O)c1cccs1)CC2 | 0.4 | 0.2 | > 24 | 0.07 | 99
15 | CCCCNc1nc(N)nc2c1CN(C(=O)c1cnc(N)s1)CC2 | 4.4 | 2.1 | > 24 | 0.38 | –
16 | CCCCNc1nc(N)nc2c1CN(Cc1c[nH]c3ccccc13)CC2 | 0.22 | > 20 | > 24 | 0.18 | –
17 | CCCCNc1nc(N)nc2c1CN(C(=O)c1cnc(C)cn1)CC2 | 6.8 | 11 | > 24 | 1.07 | –
18 | CCCCNc1nc(N)nc2c1CN(C(=O)c1cnccn1)CC2 | 2.2 | 3.7 | > 24 | 2.38 | –
19 | CCCCNc1nc(N)nc2c1CN(Cc1c(Cl)cccc1Cl)CC2 | 0.14 | 2.4 | > 24 | 0.19 | –
20 | CCCCNc1nc(N)nc2c1CN(C(=O)c1csc(N)n1)CC2 | 6.9 | 8 | > 24 | 1.05 | –
21 | CCCCNc1nc(N)nc2c1CCN(CCc1ccccc1)C2 | 0.2 | 6.5 | > 24 | – | –
22 | CCCCNc1nc(N)nc2c1CN(Cc1cc(F)cc(F)c1)CC2 | 0.23 | 3.5 | > 24 | 0.53 | –
23 | CCCCNc1nc(N)nc2c1CCNC2 | 0.6 | 8.9 | > 24 | – | –
